Target: T1, human P2X2 receptor (hP2X2R) (Homo sapiens, UniProt Q9UBL9)
T1 construct: gene P2RX2; full-length wild-type
T1 sequence (Q9UBL9 1-471): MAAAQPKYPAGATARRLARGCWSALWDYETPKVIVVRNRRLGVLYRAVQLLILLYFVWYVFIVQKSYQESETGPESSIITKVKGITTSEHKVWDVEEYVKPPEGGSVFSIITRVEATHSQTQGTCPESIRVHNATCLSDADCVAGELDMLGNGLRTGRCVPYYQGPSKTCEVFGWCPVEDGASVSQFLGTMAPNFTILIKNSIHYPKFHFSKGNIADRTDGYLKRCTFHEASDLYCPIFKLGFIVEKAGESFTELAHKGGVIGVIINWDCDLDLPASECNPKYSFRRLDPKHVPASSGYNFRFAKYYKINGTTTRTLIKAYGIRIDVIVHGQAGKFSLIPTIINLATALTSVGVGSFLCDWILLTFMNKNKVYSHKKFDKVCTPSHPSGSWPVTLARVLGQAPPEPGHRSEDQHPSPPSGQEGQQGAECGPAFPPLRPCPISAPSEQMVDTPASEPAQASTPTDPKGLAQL
Assay: cryo-EM structures of ATP-bound homotrimer ([…] and […] Å); EC50 by two-electrode voltage clamp in Xenopus oocytes (divalent-free)
Type: cell-based

For Nc1ncnc2c1ncn2[C@@H]1O[C@H](COP(=O)(O)OP(=O)(O)OP(=O)(O)O)[C@@H](O)[C@H]1O [ATP], the EC50 was 156 ± 96 nM.

From PMC12452952, “Subtype-specific structural features of the hearing loss–associated human P2X2 receptor” (Proceedings of the National Academy of Sciences of the …, 2025)
